Test results published in patent US6737383B1, “Herbicidal oxadiazolidines” (priority 1999, dated 2004).

Assays:
[1] = tested on: bedstraw; test: Test B pre/postemergence bedstraw; assay type: in vivo, Galium aparine; conditions: for Bedstraw plant response rating: scale of 0 to 10 where 0 is no effect and 10 is complete control
How it was run: (§1)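 Response is a visual 0-to-10 score relative to untreated plants, where 0 means no effect and 10 means complete control, taken twelve to sixteen days after application. Treatments went onto soil at planting and onto foliage of 1- to 4-leaf plants, using a surfactant-containing non-phytotoxic solvent.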

[2] = tested on: blackgrass; test: Test B pre/postemergence blackgrass; assay type: in vivo, Alopecurus myosuroides; conditions: for Blackgrass plant response rating: scale of 0 to 10 where 0 is no effect and 10 is complete control
How it was run: as §1

[3] = tested on: surinam grass; test: Test B pre/postemergence surinam grass; assay type: in vivo, Brachiaria decumbens; conditions: for B. signalgrass plant response rating: scale of 0 to 10 where 0 is no effect and 10 is complete control
How it was run: as §1

[4] = tested on: corn; test: Test B pre/postemergence corn; assay type: in vivo, Zea mays; conditions: for Corn plant response rating: scale of 0 to 10 where 0 is no effect and 10 is complete control
How it was run: as §1

[5] = tested on: crabgrass; test: Test B pre/postemergence crabgrass; assay type: in vivo, Digitaria sanguinalis; conditions: for Crabgrass plant response rating: scale of 0 to 10 where 0 is no effect and 10 is complete control
How it was run: as §1

[6] = tested on: giant foxtail; test: Test B pre/postemergence giant foxtail; assay type: in vivo, Setaria faberii; conditions: for Giant foxtail plant response rating: scale of 0 to 10 where 0 is no effect and 10 is complete control
How it was run: as §1

[7] = tested on: rape; test: Test B pre/postemergence rape; assay type: in vivo, Brassica napus; conditions: for Rape plant response rating: scale of 0 to 10 where 0 is no effect and 10 is complete control
How it was run: as §1

[8] = tested on: sugar beet; test: Test B pre/postemergence sugar beet; assay type: in vivo, Beta vulgaris; conditions: for Sugarbeets plant response rating: scale of 0 to 10 where 0 is no effect and 10 is complete control
How it was run: as §1

[9] = tested on: velvetleaf; test: Test B pre/postemergence velvetleaf; assay type: in vivo, Abutilon theophrasti; conditions: for Velvetleaf plant response rating: scale of 0 to 10 where 0 is no effect and 10 is complete control
How it was run: as §1

[10] = tested on: wheat; test: Test B pre/postemergence wheat; assay type: in vivo, Triticum aestivum; conditions: for Wheat plant response rating: scale of 0 to 10 where 0 is no effect and 10 is complete control
How it was run: as §1

[11] = tested on: wild oat; test: Test B pre/postemergence wild oat; assay type: in vivo, Avena fatua; conditions: for Wild oats plant response rating: scale of 0 to 10 where 0 is no effect and 10 is complete control
How it was run: as §1

[12] = tested on: purple nutsedge; test: Test B pre/postemergence purple nutsedge; assay type: in vivo, Cyperus rotundus; conditions: for Nutsedge plant response rating: scale of 0 to 10 where 0 is no effect and 10 is complete control
How it was run: as §1

[13] = tested on: rice; test: Test B flood test rice; assay type: in vivo, Oryza sativa; conditions: Pre-emergence
How it was run: (§2)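 Flood test on plants grown to the 2-leaf stage; treated plants kept in greenhouse twelve to sixteen days, then visually rated against controls on a 0 (no effect) to 10 (complete control) scale.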

[14] = tested on: smallflower flatsedge; test: Test B flood test smallflower flatsedge; assay type: in vivo, Cyperus difformis; conditions: Pre-emergence
How it was run: as §2

[15] = tested on: duck salad; test: Test B flood test duck salad; assay type: in vivo, Heteranthera limosa; conditions: Pre-emergence
How it was run: as §2

[16] = tested on: bamyardgrass; test: Test B flood test barnyardgrass; assay type: in vivo, Echinochloa crus-galli; conditions: Pre-emergence
How it was run: as §2

[17] = Postemergence, Rate 250 g/ha, scale 0 to 10, 0 is no effect, 10 is complete control
[18] = Preemergence, Rate 62 g/ha, scale 0 to 10 (0 no effect, 10 complete control)
[19] = Postemergence, Rate 125 g/ha, scale 0 to 10, 0 is no effect, 10 is complete control
[20] = Rate 500 g/ha, Postemergence, scale 0 to 10, 0 no effect, 10 complete control
[21] = Rate 62 g/ha, flood test species, visual evaluation after twelve to sixteen days
[22] = Rate 125 g/ha, flood test species, scale 0 to 10 where 0 is no effect and 10 is complete control
[23] = Rate 250 g/ha, flood-test species, scale 0 to 10, 0 is no effect, 10 is complete control
[24] = Rate 500 g/ha, flood test species, scale 0 to 10 (0 no effect, 10 complete control)

## CC(C)N(C(=O)n1oc(=O)n(C)c1=O)c1ccc(F)cc1F [Compound 368]
[1]; [17]
  Plant response rating, Bedstraw: 4
[1]; [18]
  Plant response rating, Bedstraw: 0
[1]; Preemergence, Rate 125 g/ha
  Bedstraw plant response rating (0 to 10 scale): 2
[1]; Preemergence, Rate 250 g/ha
  Bedstraw plant response rating: 10
[1]; Preemergence, Rate 500 g/ha
  Bedstraw plant response rating: 10
[1]; Rate 62 g/ha, Postemergence
  Bedstraw plant response rating: 0
[2]; [19]
  Plant response rating, Blackgrass: 7
[2]; [17]
  Plant response rating, Blackgrass: 8
[2]; [18]
  Plant response rating, Blackgrass: 8
[2]; Preemergence, Rate 125 g/ha
  Blackgrass plant response rating (0 to 10 scale): 9
[2]; Preemergence, Rate 250 g/ha
  Blackgrass plant response rating: 10
[2]; Preemergence, Rate 500 g/ha
  Blackgrass plant response rating: 10
[2]; Rate 62 g/ha, Postemergence
  Blackgrass plant response rating: 7
[2]; [20]
  Plant response rating, Blackgrass: 8
[3]; [19]
  Plant response rating, B. signalgrass: 5
[3]; [17]
  Plant response rating, B. signalgrass: 6
[3]; [18]
  Plant response rating, B. signalgrass: 1
[3]; Preemergence, Rate 125 g/ha
  B. signalgrass plant response rating (0 to 10 scale, 0 is no effect, 10 is complete control): 6
[3]; Preemergence, Rate 250 g/ha
  B. signalgrass plant response rating: 8
[3]; Preemergence, Rate 500 g/ha
  B. signalgrass plant response rating: 8
[3]; Rate 62 g/ha, Postemergence
  B. signalgrass plant response rating: 0
[3]; [20]
  Plant response rating, B. signalgrass: 7
[4]; [19]
  Plant response rating, Corn: 5
[4]; [17]
  Plant response rating, Corn: 6
[4]; [18]
  Plant response rating, Corn: 3
[4]; Preemergence, Rate 125 g/ha
  Corn plant response rating (0 to 10 scale): 6
[4]; Preemergence, Rate 250 g/ha
  Corn plant response rating: 7
[4]; Preemergence, Rate 500 g/ha
  Corn plant response rating: 10
[4]; Rate 62 g/ha, Postemergence
  Corn plant response rating: 0
[4]; [20]
  Plant response rating, Corn: 7
[5]; [19]
  Plant response rating, Crabgrass: 8
[5]; [17]
  Plant response rating, Crabgrass: 8
[5]; [18]
  Plant response rating, Crabgrass: 10
[5]; Preemergence, Rate 125 g/ha
  Crabgrass plant response rating (0 to 10 scale): 10
[5]; Preemergence, Rate 250 g/ha
  Crabgrass plant response rating: 10
[5]; Preemergence, Rate 500 g/ha
  Crabgrass plant response rating: 10
[5]; Rate 62 g/ha, Postemergence
  Crabgrass plant response rating: 6
[5]; [20]
  Plant response rating, Crabgrass: 8
[6]; [19]
  Plant response rating, Giant foxtail: 8
[6]; [17]
  Plant response rating, Giant foxtail: 9
[6]; [18]
  Plant response rating, Giant foxtail: 10
[6]; Preemergence, Rate 125 g/ha
  Giant foxtail plant response rating (0 to 10 scale): 10
[6]; Preemergence, Rate 250 g/ha
  Giant foxtail plant response rating: 10
[6]; Preemergence, Rate 500 g/ha
  Giant foxtail plant response rating: 10
[6]; Rate 62 g/ha, Postemergence
  Giant foxtail plant response rating: 8
[6]; [20]
  Plant response rating, Giant foxtail: 9
[7]; [19]
  Plant response rating, Rape: 0
[7]; [17]
  Plant response rating, Rape: 2
[7]; [18]
  Plant response rating, Rape: 0
[7]; Preemergence, Rate 125 g/ha
  Rape plant response rating (0 to 10 scale): 0
[7]; Preemergence, Rate 250 g/ha
  Rape plant response rating: 6
[7]; Preemergence, Rate 500 g/ha
  Rape plant response rating: 10
[7]; Rate 62 g/ha, Postemergence
  Rape plant response rating: 0
[7]; [20]
  Plant response rating, Rape: 5
[8]; [19]
  Plant response rating, Sugarbeets: 0
[8]; [17]
  Plant response rating, Sugarbeets: 2
[8]; [18]
  Plant response rating, Sugarbeets: 6
[8]; Preemergence, Rate 125 g/ha
  Sugarbeets plant response rating (0 to 10 scale): 8
[8]; Preemergence, Rate 250 g/ha
  Sugarbeets plant response rating: 10
[8]; Preemergence, Rate 500 g/ha
  Sugarbeets plant response rating: 10
[8]; Rate 62 g/ha, Postemergence
  Sugarbeets plant response rating: 0
[8]; [20]
  Plant response rating, Sugarbeets: 3
[9]; [19]
  Plant response rating, Velvetleaf: 0
[9]; [17]
  Plant response rating, Velvetleaf: 3
[9]; [18]
  Plant response rating, Velvetleaf: 4
[9]; Preemergence, Rate 125 g/ha
  Velvetleaf plant response rating (0 to 10 scale): 7
[9]; Preemergence, Rate 250 g/ha
  Velvetleaf plant response rating: 10
[9]; Preemergence, Rate 500 g/ha
  Velvetleaf plant response rating: 10
[9]; Rate 62 g/ha, Postemergence
  Velvetleaf plant response rating: 0
[9]; [20]
  Plant response rating, Velvetleaf: 7
[10]; [19]
  Plant response rating, Wheat: 3
[10]; [17]
  Plant response rating, Wheat: 4
[10]; [18]
  Plant response rating, Wheat: 0
[10]; Preemergence, Rate 125 g/ha
  Wheat plant response rating (0 to 10 scale): 4
[10]; Preemergence, Rate 250 g/ha
  Wheat plant response rating: 8
[10]; Preemergence, Rate 500 g/ha
  Wheat plant response rating: 10
[10]; Rate 62 g/ha, Postemergence
  Wheat plant response rating: 0
[10]; [20]
  Plant response rating, Wheat: 6
[11]; [19]
  Plant response rating, Wild oats: 0
[11]; [17]
  Plant response rating, Wild oats: 3
[11]; [18]
  Plant response rating, Wild oats: 4
[11]; Preemergence, Rate 125 g/ha
  Wild oats plant response rating (0 to 10 scale): 9
[11]; Preemergence, Rate 250 g/ha
  Wild oats plant response rating: 10
[11]; Preemergence, Rate 500 g/ha
  Wild oats plant response rating: 10
[11]; Rate 62 g/ha, Postemergence
  Wild oats plant response rating: 0
[11]; [20]
  Plant response rating, Wild oats: 5
[12]; [19]
  Plant response rating, Nutsedge: 0
[12]; [17]
  Plant response rating, Nutsedge: 0
[12]; [18]
  Plant response rating, Nutsedge: 0
[12]; Preemergence, Rate 125 g/ha
  Nutsedge plant response rating (0 to 10 scale): 2
[12]; Preemergence, Rate 250 g/ha
  Nutsedge plant response rating: 10
[12]; Preemergence, Rate 500 g/ha
  Nutsedge plant response rating: 10
[12]; Rate 62 g/ha, Postemergence
  Nutsedge plant response rating: 0
[12]; [20]
  Plant response rating, Nutsedge: 0
[13]; [21]
  Plant response rating, Rice (0 to 10 scale, 0 is no effect, 10 is complete control): 0
[13]; [22]
  Rice plant response rating: 0
[13]; [23]
  Rice plant response rating: 0
[13]; [24]
  Rice plant response rating: 5
[14]; [21]
  Plant response rating, S. Flatsedge (0 to 10 scale, 0 is no effect, 10 is complete control): 0
[14]; [22]
  S. Flatsedge plant response rating: 0
[14]; [23]
  S. Flatsedge plant response rating: 2
[14]; [24]
  S. Flatsedge plant response rating: 4
[15]; [21]
  Plant response rating, Ducksalad (0 to 10 scale, 0 is no effect, 10 is complete control): 0
[15]; [22]
  Ducksalad plant response rating: 0
[15]; [23]
  Ducksalad plant response rating: 0
[15]; [24]
  Ducksalad plant response rating: 0
[16]; [21]
  Plant response rating, Barnyardgrass (0 to 10 scale, 0 is no effect, 10 is complete control): 0
[16]; [22]
  Barnyardgrass plant response rating: 0
[16]; [23]
  Barnyardgrass plant response rating: 0
[16]; [24]
  Barnyardgrass plant response rating: 7
